One test deals with T1, human DP2 receptor (Homo sapiens, UniProt Q9Y5Y4).
T1 construct: expressed in transfected cells
T1 sequence (Q9Y5Y4 1-395): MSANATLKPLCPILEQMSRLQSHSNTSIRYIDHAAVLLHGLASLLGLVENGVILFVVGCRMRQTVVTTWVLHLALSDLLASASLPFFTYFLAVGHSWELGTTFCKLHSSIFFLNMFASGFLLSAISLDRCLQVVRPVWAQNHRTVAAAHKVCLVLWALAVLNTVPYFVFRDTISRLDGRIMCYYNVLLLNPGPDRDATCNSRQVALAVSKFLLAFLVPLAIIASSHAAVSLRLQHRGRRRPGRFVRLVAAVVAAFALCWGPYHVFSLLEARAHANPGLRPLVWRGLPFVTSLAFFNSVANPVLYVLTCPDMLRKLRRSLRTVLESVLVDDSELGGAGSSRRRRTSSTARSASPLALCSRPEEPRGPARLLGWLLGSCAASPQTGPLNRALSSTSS
The experiment in a line: DP2/CRTH2 radioligand binding assay using [3H]PGD2. The conditions noted are these: hDP2 (CRTH2) binding assay. The procedure, abridged: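 HEK293 membranes with stable recombinant human DP2, incubated with 1 nM [3H]PGD2 and compound 60 min at room temperature in pH 7.4 HEPES/MnCl2/EDTA buffer, with or without 0.2% human serum albumin.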

A further test deals with T2, human DP1 receptor (Homo sapiens, UniProt Q13258).
T2 construct: tissue Biological Specialty Corporation; host or cells: human platelets, membranes
T2 sequence (Q13258 1-359): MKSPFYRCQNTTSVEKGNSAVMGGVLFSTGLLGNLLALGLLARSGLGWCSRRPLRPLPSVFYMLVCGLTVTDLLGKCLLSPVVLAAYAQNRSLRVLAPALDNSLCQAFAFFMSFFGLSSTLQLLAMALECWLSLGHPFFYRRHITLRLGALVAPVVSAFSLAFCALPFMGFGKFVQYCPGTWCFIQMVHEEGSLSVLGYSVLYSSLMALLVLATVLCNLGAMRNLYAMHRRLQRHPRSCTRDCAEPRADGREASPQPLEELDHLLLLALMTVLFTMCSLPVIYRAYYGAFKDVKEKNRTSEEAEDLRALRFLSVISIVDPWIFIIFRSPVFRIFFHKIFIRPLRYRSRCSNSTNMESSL
The experiment in a line: DP1 radioligand binding assay using [3H]BWA868C. Conditions: hDP1 binding. The procedure, abridged: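 Human platelet membranes (20 μg protein/well) incubated 60 min at room temperature with 2 nM [3H]BWA868C in 50 mM Hepes, 10 mM MnCl2, 1 mM EDTA, ±0.2% human serum albumin, pH 7.4. Bound label measured after filtration; nonspecific binding defined with 10 μM BW A868C. IC50 from titration curves.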

Test [1] has as its target T3, recombinant human CRTH2 receptor (Homo sapiens, UniProt Q9Y5Y4).
T3 construct: expressed in transfected cells
T3 sequence (Q9Y5Y4 1-395): T1 sequence (Q9Y5Y4 1-395)
The experiment in a line: GTPγS binding assay. Conditions: +HSA; read-out: hDP2 GTPγS μM (+HSA). Format: biochemical. The method in brief: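 Membranes from CHO cells stably expressing recombinant receptor (~12.5 μg/well), incubated 60 min at 30° C with 0.05 nM [^35S]-GTPγS, 80 nM PGD2, 5 μM GDP in pH 7.4 Hepes buffer with 0.2% human serum albumin. Filter-bound radioactivity counted; specific binding = total minus binding without PGD2; IC50 from titration curves.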

This passage reports IC50 results from patent US8242145B2, “Cyclic diaryl ether compounds as antagonists of prostaglandin D2 receptors” (Panmira Pharmaceuticals, LLC, priority 2008, dated 2012).

As for `COc1ccc(CC(=O)O)cc1Oc1cc(Br)ccc1CN1C(=O)O[C@@H](c2ccccc2)[C@H]1C` [Compound 1-82, {3-[5-Bromo-2-((4R,5S)-4-Methyl-2-oxo-5-phenyl-oxazolidin-3-ylmethyl)-phenoxy]-4-methoxy-phenyl}-acetic acid], the results for the IC50 (at human DP2 receptor; on human DP1 receptor; in test [1]) were less than 300 nM, more than 1000 nM and less than 0.3 µM, respectively.

For the compound `CCOc1ccc(CC(=O)O)cc1Oc1ccc(C(F)(F)F)cc1CN1C(=O)O[C@@H](c2ccccc2)[C@H]1C` [Compound 1-83, {4-Ethoxy-3-[2-((4R,5S)-4-methyl-2-oxo-5-phenyl-oxazolidin-3-ylmethyl)-4-trifluoromethyl-phenoxy]-phenyl}-acetic acid], the IC50 at human DP2 receptor is less than 300 nM; on human DP1 receptor, more than 1000 nM; in test [1], less than 0.3 µM.

Consider `Cn1cc(-c2ccc(Oc3cccc(CC(=O)O)c3)c(CN3CCOC3=O)c2)cn1` [Compound 1-84, {3-[4-(1-Methyl-1H-pyrazol-4-yl)-2-(2-oxo-oxazolidin-3-ylmethyl)-phenoxy]-phenyl}-acetic acid], for which the IC50 on human DP2 receptor is 300 to 1000 nM; on human DP1 receptor, more than 1000 nM; in test [1], 0.3 to 1 µM.

Turning to `CS(=O)(=O)c1ccc(-c2ccc(Oc3cccc(CC(=O)O)c3)c(CN3CCOC3=O)c2)cc1` [Compound 1-85, {3-[4′-Methanesulfonyl-3-(2-oxo-oxazolidin-3-ylmethyl)-biphenyl-4-yloxy]-phenyl}-acetic acid], the IC50 at human DP2 receptor is less than 300 nM; on human DP1 receptor it was more than 1000 nM; in test [1], 0.3 to 1 µM.

For `COc1ccc(CC(=O)O)cc1Oc1ccc(Cl)cc1CN1CCOC1=O` [Compound 1-86, {3-[4-Chloro-2-(2-oxo-oxazolidin-3-ylmethyl)-phenoxy]-4-methoxy-phenyl}-acetic acid], the values for the IC50 (at human DP2 receptor; at human DP1 receptor; in test [1]) were less than 300 nM, more than 1000 nM and less than 0.3 µM, respectively.

Consider `C[C@@H]1[C@H](c2ccccc2)OC(=O)N1Cc1cc(Br)ccc1Oc1cc(CC(=O)O)ccc1O` [Compound 1-87, {3-[4-Bromo-2-((4R,5S)-4-methyl-2-oxo-5-phenyl-oxazolidin-3-ylmethyl)-phenoxy]-4-hydroxy-phenyl}-acetic acid], for which the IC50 on human DP2 receptor was less than 300 nM; at human DP1 receptor, more than 1000 nM; in test [1] it was less than 0.3 µM.

Consider `CCOc1ccc(CC(=O)O)cc1Oc1ccc(Br)cc1CN1C(=O)O[C@@H](c2ccccc2)[C@H]1C` [Compound 1-88, {3-[4-Bromo-2-((4R,5S)-4-methyl-2-oxo-5-phenyl-oxazolidin-3-ylmethyl)-phenoxy]-4-ethoxy-phenyl}-acetic acid], for which the IC50 was less than 300 nM at human DP2 receptor, more than 1000 nM at human DP1 receptor and less than 0.3 µM in test [1].

As for `O=C(O)Cc1cc(Cl)cc(Oc2ccc(Br)cc2CN2CCOC2=O)c1` [Compound 1-89, {3-[4-Bromo-2-(2-oxo-oxazolidin-3-ylmethyl)-phenoxy]-5-chloro-phenyl}-acetic acid], the IC50 at human DP2 receptor was less than 300 nM; on human DP1 receptor it was more than 1000 nM; in test [1], less than 0.3 µM.

As for `COc1ccc(CC(=O)O)cc1Oc1ccc(NC(=O)c2ccc(Cl)cc2)cc1CN1CCOC1=O` [Compound 1-91, {3-[4-(4-Chloro-benzoylamino)-2-(2-oxo-oxazolidin-3-ylmethyl)-phenoxy]-4-methoxy-phenyl}-acetic acid], the values for the IC50 (at human DP2 receptor; at human DP1 receptor; in test [1]) were less than 300 nM, more than 1000 nM and more than 1 µM, respectively.

`O=C(O)Cc1cccc(Oc2ccc(Br)cc2CN2C(=O)O[C@H]3Cc4ccccc4[C@H]32)c1` [Compound 2-1, {3-[4-Bromo-2-((3aR,8aS)-2-oxo-8,8a-dihydro-3aH-indeno[1,2-d]oxazol-3-ylmethyl)-phenoxy]-phenyl}-acetic acid]: the IC50 at human DP2 receptor is less than 300 nM; on human DP1 receptor, more than 1000 nM; in test [1], less than 0.3 µM.

In the case of `O=C(O)Cc1cccc(Oc2ccc(Br)cc2CN2C(=O)O[C@@H]3Cc4ccccc4[C@@H]32)c1` [Compound 2-2, {3-[4-Bromo-2-((3aS,8aR)-2-oxo-8,8a-dihydro-3aH-indeno[1,2-d]oxazol-3-ylmethyl)-phenoxy]-phenyl}-acetic acid], the values for the IC50 (on human DP2 receptor; at human DP1 receptor; in test [1]) were less than 300 nM, more than 1000 nM and less than 0.3 µM, respectively.

As to `O=C(O)Cc1cccc(Oc2ccc(C(F)(F)F)cc2CN2C(=O)O[C@@H]3Cc4ccccc4[C@@H]32)c1` [Compound 2-3, {3-[2-((3aS,8aR)-2-Oxo-8,8a-dihydro-3aH-indeno[1,2-d]oxazol-3-ylmethyl)-4-trifluoromethyl-phenoxy]-phenyl}-acetic acid], the IC50 on human DP2 receptor was less than 300 nM; at human DP1 receptor it was more than 1000 nM; in test [1], 0.3 to 1 µM.

On to `COc1ccc(CC(=O)O)cc1Oc1ccc(Br)cc1CN1C(=O)O[C@H]2Cc3ccccc3[C@H]21` [Compound 2-4, {3-[4-Bromo-2-((3aR,8aS)-2-oxo-8,8a-dihydro-3aH-indeno[1,2-d]oxazol-3-ylmethyl)-phenoxy]-4-methoxy-phenyl}-acetic acid], for which the IC50 on human DP2 receptor is less than 300 nM; at human DP1 receptor it was more than 1000 nM; in test [1], less than 0.3 µM.

For the compound `COc1ccc(CC(=O)O)cc1Oc1ccc(Br)cc1CN1C(=O)O[C@@H]2Cc3ccccc3[C@@H]21` [Compound 2-5, {3-[4-Bromo-2-((3aS,8aR)-2-oxo-8,8a-dihydro-3aH-indeno[1,2-d]oxazol-3-ylmethyl)-phenoxy]-4-methoxy-phenyl}-acetic acid], the IC50 on human DP2 receptor is less than 300 nM; on human DP1 receptor, more than 1000 nM; in test [1], less than 0.3 µM.

Consider `O=C(O)Cc1cccc(Oc2ccc(C(F)(F)F)cc2CN2C(=O)OC3c4ccccc4CC32)c1` (stereo not drawn) [Compound 2-7, {3-[2-(2-Oxo-4,8b-dihydro-3aH-indeno[2,1-d]oxazol-3-ylmethyl)-4-trifluoromethyl-phenoxy]-phenyl}-acetic acid], for which the IC50 on human DP2 receptor is less than 300 nM; at human DP1 receptor it was more than 1000 nM; in test [1] it was less than 0.3 µM.

`O=C(O)Cc1cccc(Oc2ccc(Br)cc2CN2CC(c3ccc(Cl)cc3)CC2=O)c1` (stereo not drawn) [Compound 3-2, (3-{4-Bromo-2-[4-(4-chloro-phenyl)-2-oxo-pyrrolidin-1-ylmethyl]-phenoxy}-phenyl)-acetic acid]: the IC50 on human DP2 receptor is less than 300 nM; on human DP1 receptor it was 300 to 1000 nM; in test [1], more than 1 µM.

In the case of `O=C(O)CCn1c2c(c3ccccc31)C[C@H](NS(=O)(=O)c1ccc(F)cc1)CC2` [Ramatroban, reference compound], the IC50 is 300 to 1000 nM on human DP2 receptor, more than 1000 nM at human DP1 receptor and 0.3 to 1 µM in test [1].
